Structures can show the parent of a compound that is named as a salt.
Tests used:
vagotomized rat = assay: Action to tenderness threshold value in vagotomized rat; type: in vivo; conditions: for significance versus solvent group: at the dose shown in Table 6, P<0.05; for Improvement rate (tenderness threshold value): male SD rats, 3 mg/kg oral, after 2 hours, sham = 100%, surgery solvent group = 0%
Description: (§1) Moreover, in Test Examples 2 to 6, a 0.5% methyl cellulose suspension was used as a test drug.
The model was made based on Neuroscience, 2009, vol. 164, p. 1252-1262. Male SD rats (provided by Japan SLC, Inc, Japan) were anesthetized with somnopentyl, followed by shaving near a xiphisternum. Incision was performed along the midline from the xiphisternum to the tail side. A stomach and an esophagus under a diaphragm were exposed, and vagus nerves on both sides of the esophagus were transected. Muscle and skin were sutured in order. 1 to 3 weeks after the surgery, a decrease in the tenderness threshold value was confirmed. The solvent or the test drug was orally administered, and after 2 hours, the tenderness threshold value was measured using Randall-Selitto equipment (manufactured by Muromachi Kikai Co., Ltd.) in a gastrocnemius muscle. A significant difference test of a solvent group and a test drug group was performed in comparison between groups using Student's t-test or Dunnett multiple comparison test. With P<0.05 in each assay, it was determined that there was a significant difference.
Effectiveness of several representative Example compounds of the invention is shown in the following Table as an improvement rate when a value of a group in which the solvent was administered into a sham surgery group was set as 100%, and a value of a group in which the solvent was administered into a surgery group was set as 0%.

IK1 channel [1] = molecular target: T1, IK1 channel (Homo sapiens, UniProt O15554); assay: IK1 channel opening activity measurement test (membrane potential, human IK1 channel expressing CHO dhfr- cells); type: cell-based; set-up: expressed in transfected cells; host or cells: CHO dhfr- cells; conditions: NS-309 0.2 μM = 100%, DMSO = 0%, read-out: EC50 of IK1 channel opening action
Description: (§2) Cells ((1) T84 cells (which is known as IK1 channel expressing cells) or (2) human IK1 channel expressing cells (transgene: NM_002250.2, use cells: CHO dhfr-)) were seeded in a 384-well microplate so as to be 12000 cells/well. After incubation overnight, a medium was suctioned, and 20 μL of FLIPR Membrane Potential Assay Reagent (FLIPR Membrane Potential Assay kit, manufactured by Molecular Devices LLC) was added to the medium, followed by incubation at room temperature for 1 hour. Fluorescence intensity was measured at 530 nm/590 nm, which was set as a pre value. 20 μL of a buffer solution containing a test drug (which contains 0.01% pluronic acid and 20 mM Hepes-NaOH (pH7.4); 0.2% CHAPS in HBSS) was added, followed by incubation at room temperature for 1 hour, and a post value was measured. Activity of the test drug was determined from relative values where NS-309 (6,7-dichloro-1H-indole-2,3-dione 3-oxime, manufactured by Sigma-Aldrich Co., LLC; 0.2 μM; DMSO solution) treatment was set as 100%, and DMSO treatment was set as 0%. Activity value (%) at each concentration was plotted against a concentration of the test drug, and EC50 value was calculated by a Logistic regression method.
(§3) The EC50 values of an IK1 channel opening action of the several representative Example compounds of the invention are shown in the following Table (in the Table, No. means a number, and Ex means an Example compound number. The same shall apply hereinafter.). […] With P<0.05 in each assay, it was determined that there was a significant difference.

IK1 channel [2] = molecular target: T1, IK1 channel; assay: IK1 channel opening activity measurement test (membrane potential, T84 cells); type: cell-based; set-up: T84 cells (which is known as IK1 channel expressing cells); endogenous in cells; host or cells: T84 cells; conditions: NS-309 0.2 μM = 100%, DMSO = 0%, read-out: EC50 of IK1 channel opening action
Description: as §2, §3

[3] = tested on: abdominal pain by rat colorectal distension; assay: Effect on abdominal pain by rat colorectal distension; type: in vivo; conditions: for MED (minimum effective dose): Wistar male rats, oral, 1 hour after administration, abdominal flexion behavior; for significance versus solvent group: at the dose shown in Table 3, P<0.05
Description: as §1
After Wistar male rats (CLEA Japan, Inc.) were anesthetized with isoflurane, a balloon was inserted into the colon. After awakening, the test drug was orally administered, and after 1 hour, abdominal pain induced by balloon expansion was measured as an indicator of an abdominal flexion behavior. Each stimulus (15, 30, 45, 60 mmHg) was repeatedly performed for 5 minutes at 5-minute intervals. A significant difference test of a solvent group and a test drug group was performed in comparison between groups using Student's t-test or Dunnett multiple comparison test. With P<0.05 in each assay, it was determined that there was a significant difference.
Effectiveness in the abdominal pain test by rat colorectal distension of the several representative Example compounds of the invention is shown in the following Table (In the Table, MED means a minimum effective dose. The same shall apply hereinafter.).

[4] = tested on: adjuvant-induced arthritis rat; assay: Inhibitory effect on hindlimb weight distribution in adjuvant-induced arthritis rat; type: in vivo; conditions: for significance versus solvent group: at the dose shown in Table 4, P<0.05; for MED (minimum effective dose): female Lewis rat, oral, 1 or 2 hours after administration, hindlimb weight distribution
Description: as §1
This model is a model to study inflammatory pain. 50 μL of killed Mycobacterium tuberculosis H37Ra (manufactured by DIFCO Laboratories) suspended in a liquid paraffin was subcutaneously administered into a right hindlimb footpad of a female Lewis rat (provided by Charles River Laboratories, Japan) so as to be 10 mg/mL. Next day, the solvent or the test drug was orally administered. After 1 or 2 hours, the weight distribution between the left and the right hindlimbs was measured using an Incapacitance Tester (manufactured by Linton Instrumentation). A significant difference test of a solvent group and a test drug group was performed in comparison between groups using Student's t-test or Dunnett multiple comparison test. With P<0.05 in each assay, it was determined that there was a significant difference.
Effectiveness in the adjuvant-induced arthritis rat test of the several representative Example compounds of the invention is shown in the following Table.

[5] = tested on: monoiodoacetate-induced osteoarthritis model; assay: Inhibitory effect on hindlimb weight distribution in monoiodoacetate-induced osteoarthritis model; type: in vivo, rat; conditions: for significance versus solvent group: at the dose shown in Table 5, P<0.05; for Improvement rate: male SD rats, 1 mg/kg oral, 3 weeks after MIA, 1 or 2 hours after administration
Description: as §1
This model is a model of osteoarthritis, and action to osteoarthritis pain can be evaluated using the model. This test was performed based on The Journal of Pharmacology and Experimental Therapeutics, 2010, vol. 334, p. 955-963. Under isoflurane anesthesia, 1 mg/site of monoiodoacetate (hereinafter referred to as MIA) (manufactured by Sigma-Aldrich Co., LLC) solution was singly administered into the right knee joint cavity of male SD rats (provided by Charles River Laboratories, Japan). MIA was dissolved in physiological saline, and 50 μL thereof was administered using a 27 gauge×0.5 inches needle. 3 weeks after the MIA administration, the solvent or the test drug was orally administered. After 1 or 2 hours, the weight distribution between the left and the right hindlimb was measured using an Incapacitance Tester (manufactured by Linton Instrumentation). A significant difference test of a solvent group and a test drug group was performed in comparison between groups using Student's t-test or Dunnett multiple comparison test. With P<0.05 in each assay, it was determined that there was a significant difference.
Effectiveness with respect to a monoiodoacetate-induced osteoarthritis model of the several representative Example compounds of the invention is shown in the following Table.

[6] = tested on: reserpine-induced myalgia model; assay: Effect on tenderness threshold value in reserpine-induced myalgia model; type: in vivo, rat
Description: as §1
This model is a model which imitates a fibromyalgia disease. This test was performed based on Pain, 2009, vol. 146, p 26-33. Reserpine (1 mg/kg) was subcutaneously administered into male SD rats (provided by Japan SLC, Inc, Japan) once a day for 3 days. After 5 days, the solvent or the test drug was orally administered. After 2 hours, a tenderness threshold value was measured using Randall-Selitto equipment (manufactured by Muromachi Kikai Co., Ltd.) in a gastrocnemius muscle. A significant difference test of a solvent group and a test drug-administered group was performed in comparison between groups using Student's t-test or Dunnett multiple comparison test. Here, a value obtained by administering the solvent to a normal rat to which reserpine was not administered was set as 100%, and a value of the reserpine group into which the solvent was administered was set as 0%. With P<0.05 in each assay, it was determined that there was a significant difference.

SMILES | significance versus solvent group (vagotomized rat) | Improvement rate (tenderness threshold value) (vagotomized rat) | EC50 (IK1 channel [1]) [µM] | EC50 (IK1 channel [2]) [µM] | MED (minimum effective dose) [3] [mg/kg] | significance versus solvent group [3] | significance versus solvent group [4] | MED (minimum effective dose) [4] [mg/kg] | significance versus solvent group [5] | Improvement rate [5] | significance versus solvent group ([6]; 1 mg/kg, P<0.05) | Improvement rate (tenderness threshold value) ([6]; male SD rats, 1 mg/kg oral, after 2 hours, normal rat = 100%, reserpine solvent group = 0%)
O=C(O)c1cc(-c2csc3cc(C(F)(F)F)c(Cl)cc23)ccc1N1CCO[C@H](CNC2CCC2)C1 [Ex15, 5-[5-chloro-6-(trifluoromethyl)-1-benzothiophen-3-yl]-2-{(2R)-2-[(cyclobutylamino)methyl]morpholin-4-yl}benzoic acid hydrochloride] | significant activity | >50% (3 mg/kg) | – | – | – | – | – | – | – | – | – | –
Cc1sc2cc(Cl)c(F)cc2c1-c1ccc(N2CCO[C@H](CNC(C)(C)C)C2)c(C(=O)O)c1 [Ex19] | – | – | 0.0055 | 1.5 | – | – | – | – | – | – | – | –
Cc1sc2cc(Cl)c(F)cc2c1-c1ccc(N2CCO[C@H](CNC3CCC3)C2)c(C(=O)O)c1 [Ex18, 5-(6-chloro-5-fluoro-2-methyl-1-benzothiophen-3-yl)-2-{(2R)-2-[(cyclobutylamino)methyl]morpholin-4-yl}benzoic acid hydrochloride] | significant activity | >50% (3 mg/kg) | 0.048 | 0.92 | 0.3 | significant activity | significant activity | 3 | significant activity | >50% (1 mg/kg) | – | –
O=C(O)c1cc(-c2c(F)sc3cc(Cl)ccc23)ccc1N1CCO[C@H](CNC2CCC2)C1 [Ex11, 5-(6-chloro-2-fluoro-1-benzothiophen-3-yl)-2-{(2R)-2-[(cyclobutylamino)methyl]morpholin-4-yl}benzoic acid hydrochloride] | – | – | 0.011 | 3.07 | – | – | significant activity | 3 | significant activity | >50% (l mg/kg) | – | –
CC(C)(C)NC[C@H]1CCCN(c2ccc(-c3csc4cc(C(F)(F)F)ccc34)cc2C(=O)O)C1 [Ex14, 2-{(3R)-3-[(tert-butylamino)methyl]piperidin-1-yl}-5-[6-(trifluoromethyl)-1-benzothiophen-3-yl]benzoic acid hydrochloride] | significant activity | >50% (3 mg/kg) | 0.028 | 3.17 | – | – | significant activity | 1 | significant activity | 42% (1 mg/kg) | – | –
Cc1sc2cc(Cl)ccc2c1-c1ccc(N2CCO[C@H](CNC3CCC3)C2)c(C(=O)O)c1 [Ex10, 5-(6-chloro-2-methyl-1-benzothiophen-3-yl)-2-{(2R)-2-[(cyclobutylamino)methyl]morpholin-4-yl}benzoic acid monohydrochloride] | significant activity | >50% (3 mg/kg) | 0.093 | 3.89 | 0.3 | significant activity | significant activity | 3 | significant activity | >50% (l mg/kg) | significant activity | higher than 50%
Cc1sc2cc(Cl)ccc2c1-c1ccc(N2CCO[C@H](CNC(C)(C)C)C2)c(C(=O)O)c1 [Ex16] | – | – | 0.033 | 8.04 | – | – | – | – | – | – | – | –
O=C(O)c1cc(-c2csc3cc(C(F)(F)F)ccc23)ccc1N1CCO[C@H](CNC2CCC2)C1 [Ex12] | – | – | 0.024 | 1.75 | – | – | – | – | – | – | – | –
Cc1sc2cc(F)ccc2c1-c1ccc(N2CCO[C@H](CNC3CCC3)C2)c(C(=O)O)c1 [Ex13] | – | – | 0.052 | 3.76 | – | – | – | – | – | – | – | –

Reference: patent publication US9399038B2, “Benzothiophene compound” (ASTELLAS PHARMA INC., priority 2013, dated 2016)
